Data on 26 compounds can be found in ChEMBL document CHEMBL4715709, “Synthesis and evaluation of anticonvulsant properties of new N-Mannich bases derived from 3-(1-phenylethyl)- and 3-benzyl-pyrrolidine-2,5-dione” (Bioorg Med Chem Lett, 2016).

Active and inactive are the calls of the source. The rule behind the calls is not given here.

For series [1], the system named is Mus musculus. The experiment in a line: Anticonvulsant activity in ip dosed mouse assessed as minimum dose required for protection against ScPTZ-induced epilepsy measured after 4 hrs by subcutaneous pentylenetetrazole test. Type of series: functional.
Series [2] deals with Mus musculus. Kind of series: Anticonvulsant activity in mouse assessed as protection against tonic-clonic seizures at 300 mg/kg, ip measured after 4 hrs by maximal electroshock seizure test. Type of series: functional, organism-based. (Protection in the maximal electroshock model is a classic sign of anticonvulsant action.)
The test system of series [3] is Mus musculus. Kind of series: Anticonvulsant activity in mouse assessed as protection against tonic-clonic seizures at 300 mg/kg, ip measured after 0.5 hrs by maximal electroshock seizure test. The format is functional, organism-based.
Series [4] is described as follows: Neurotoxicity in ip dosed mouse assessed as minimum dose required for induction of motor impairment measured after 0.5 hrs by rotarod test. Type of series: toxicity, organism-based. The following applies: in vivo. Background: The rotarod test checks motor coordination on a turning rod.
Series [5] in a line: Neurotoxicity in mouse assessed as induction of motor impairment at 300 mg/kg, ip measured after 4 hrs by rotarod test. Type of series: toxicity, organism-based. The following applies: in vivo.
Series [6] relates to Mus musculus. The experiment in a line: Anticonvulsant activity in mouse assessed as protection against ScPTZ-induced epilepsy at 300 mg/kg, ip measured after 0.5 hrs by subcutaneous pentylenetetrazole test. Type of series: functional, organism-based.
Series [7] has as its system Mus musculus. The experiment in a line: Anticonvulsant activity in mouse assessed as protection against ScPTZ-induced epilepsy at 300 mg/kg, ip measured after 4 hrs by subcutaneous pentylenetetrazole test. Type of series: functional, organism-based.
Series [8] can be described thus: Neurotoxicity in mouse assessed as induction of motor impairment at 300 mg/kg, ip measured after 0.5 hrs by rotarod test. The format is toxicity, organism-based. The note with it: in vivo.
Series [9] concerns Mus musculus. The experiment in a line: Anticonvulsant activity in ip dosed mouse assessed as minimum dose required for protection against tonic-clonic seizures measured after 0.5 hrs by maximal electroshock seizure test. Type of series: functional.
Series [10] relates to Mus musculus. Kind of series: Anticonvulsant activity in ip dosed mouse assessed as minimum dose required for protection against ScPTZ-induced epilepsy measured after 0.5 hrs by subcutaneous pentylenetetrazole test. The format is functional.
A short description of series [11]: Neurotoxicity activity in ip dosed mouse assessed as induction of motor impairment by rotarod test. Type of series: toxicity, organism-based. The note with it: in vivo.

Consider `O=C1CC(Cc2ccccc2)C(=O)N1CN1CCN(c2ccccc2F)CC1` (racemic), for which, in the series with Mus musculus [1], the “MED=>50” value turned out to be 300 mg/kg. Also, the result in the series with Mus musculus [2], in the series on Mus musculus [3] and in the series on Mus musculus [6] was inactive. Further, the MTD50 in series [4] amounted to 300 mg/kg. In series [5], the Activity entry is recorded as “Non-Toxic”.

Consider `COc1cccc(N2CCN(CN3C(=O)CC(Cc4ccccc4)C3=O)CC2)c1` (stereo unspecified), for which the result in the series with Mus musculus [7], with Mus musculus [2], in the series with Mus musculus [3] and with Mus musculus [6] was inactive. For the same compound, the Activity result in series [8] and in series [5] was “Non-Toxic” each time.

As for `CC(c1ccccc1)C1CC(=O)N(CN2CCN(c3ccc(F)cc3)CC2)C1=O` (stereo unspecified), the result in the series with Mus musculus [7], in the series on Mus musculus [2], in the series with Mus musculus [3] and in the series on Mus musculus [6] was inactive. Moreover, the Activity result in series [8] and in [5] was “Non-Toxic” in each case.

Regarding `COc1cccc(N2CCN(CN3C(=O)CC(C(C)c4ccccc4)C3=O)CC2)c1` (stereo unspecified), the result in the series with Mus musculus [7], in the series with Mus musculus [2], in the series on Mus musculus [3] and in the series with Mus musculus [6] was inactive. The Activity entry in [8] and in [5] was “Non-Toxic” each time.

As for `Cc1ccccc1N1CCN(CN2C(=O)CC(Cc3ccccc3)C2=O)CC1` (racemic), the result with Mus musculus [7], with Mus musculus [2], in the series with Mus musculus [3] and in the series on Mus musculus [6] was inactive. Besides, the Activity result in series [8] and in series [5] was “Non-Toxic” each time.

For the compound `O=C1CC(Cc2ccccc2)C(=O)N1CN1CCN(c2ccccc2Cl)CC1` (racemic), the “MED=>50” value with Mus musculus [1] was found to be 100 mg/kg. For the same compound, the Activity entry in series [8] and in [5] was “Non-Toxic” each time. In addition, the outcome with Mus musculus [2], with Mus musculus [3] and in the series with Mus musculus [6] was inactive.

Regarding `O=C1CC(Cc2ccccc2)C(=O)N1CN1CCN(c2ccccc2)CC1` (racemic), the outcome with Mus musculus [7], in the series on Mus musculus [2], in the series with Mus musculus [3] and in the series on Mus musculus [6] was inactive. In series [4], the MTD50 was determined as 300 mg/kg. Further, in [5], the Activity result is “Non-Toxic”.

For `CC(c1ccccc1)C1CC(=O)N(CN2CCN(c3ncccn3)CC2)C1=O` (racemic), the “MED=>50” value in the series with Mus musculus [1] was 300 mg/kg. The outcome in the series with Mus musculus [2], in the series with Mus musculus [3] and in the series on Mus musculus [6] was inactive. The MTD50 in series [4] was 300 mg/kg. Besides, the Activity entry in [5] was “Non-Toxic”.

As to `CC(c1ccccc1)C1CC(=O)N(CN2CCN(Cc3ccccc3)CC2)C1=O` (stereo unspecified), the result with Mus musculus [7], with Mus musculus [2], in the series on Mus musculus [3] and in the series on Mus musculus [6] was inactive. The Activity result in series [8] and in series [5] was “Non-Toxic” each time.

On to `Cc1cccc(N2CCN(CN3C(=O)CC(Cc4ccccc4)C3=O)CC2)c1` (racemic), for which, in the series on Mus musculus [1], the “MED=>50” value worked out at 100 mg/kg. For the same compound, the outcome in the series with Mus musculus [2] and with Mus musculus [6] was inactive. The minimum effective dose with Mus musculus [9] is 300 mg/kg. Besides, the MTD50 in series [4] was determined as 300 mg/kg. Also, the Activity entry in series [5] was “Non-Toxic”.

Turning to `O=C1CC(Cc2ccccc2)C(=O)N1CN1CCN(c2cccc(Cl)c2Cl)CC1` (stereo unspecified), the result with Mus musculus [7], with Mus musculus [2], in the series with Mus musculus [3] and with Mus musculus [6] was inactive. Further, the Activity result in [8] and in series [5] was “Non-Toxic” throughout.

With `CC(c1ccccc1)C1CC(=O)N(CN2CCN(c3ccc(Cl)cc3)CC2)C1=O` (racemic), the “MED=>50” value in the series with Mus musculus [1] and in the series with Mus musculus [10] was 300 mg/kg in each case. The Activity result in [8] and in series [5] was “Non-Toxic” each time. The result in the series with Mus musculus [2] and with Mus musculus [3] was inactive.

`CC(c1ccccc1)C1CC(=O)N(CN2CCN(c3ccccc3Cl)CC2)C1=O` (stereo unspecified): the outcome in the series on Mus musculus [7], with Mus musculus [2], with Mus musculus [3] and with Mus musculus [6] was inactive. In addition, the Activity entry in [8] and in [5] was “Non-Toxic” in each case.

Consider `COc1ccccc1N1CCN(CN2C(=O)CC(Cc3ccccc3)C2=O)CC1` (racemic), for which the result with Mus musculus [7], with Mus musculus [2] and in the series with Mus musculus [3] was inactive. In addition, in the series on Mus musculus [10], the “MED=>50” value came out at 100 mg/kg. Moreover, in [4], the MTD50 was found to be 300 mg/kg. For the same compound, the Activity result in series [5] was “Non-Toxic”.

For the compound `CC(c1ccccc1)C1CC(=O)N(CN2CCN(c3cccc(Cl)c3Cl)CC2)C1=O` (stereo unspecified), the outcome in the series with Mus musculus [7], in the series on Mus musculus [2], with Mus musculus [3] and with Mus musculus [6] was inactive. Further, the Activity entry in [8] and in [5] was “Non-Toxic” each time.

As for `O=C1CC(Cc2ccccc2)C(=O)N1CN1CCC(Cc2ccccc2)CC1` (stereo unspecified), the result in the series on Mus musculus [7], in the series with Mus musculus [2], in the series with Mus musculus [3] and in the series with Mus musculus [6] was inactive. The Activity result in series [8] and in [5] was “Non-Toxic” throughout.

With `Cc1cccc(N2CCN(CN3C(=O)CC(C(C)c4ccccc4)C3=O)CC2)c1` (racemic), the result in the series with Mus musculus [7], in the series with Mus musculus [2], in the series on Mus musculus [3] and with Mus musculus [6] was inactive. Besides, the MTD50 in series [4] amounted to 300 mg/kg. Moreover, the Activity result in [5] is “Non-Toxic”.

For the compound `CC(c1ccccc1)C1CC(=O)N(CN2CCN(c3ccc(Cl)c(Cl)c3)CC2)C1=O` (stereo unspecified), the result with Mus musculus [7], with Mus musculus [2], with Mus musculus [3] and in the series with Mus musculus [6] was inactive. Further, the Activity result in series [8] and in [5] was “Non-Toxic” throughout.

For `Cc1ccccc1N1CCN(CN2C(=O)CC(C(C)c3ccccc3)C2=O)CC1` (stereo unspecified), the outcome with Mus musculus [7], with Mus musculus [2], in the series with Mus musculus [3] and in the series on Mus musculus [6] was inactive. The Activity result in series [8] and in series [5] was “Non-Toxic” in each case.

On to `O=C1CC(Cc2ccccc2)C(=O)N1CN1CCN(c2cccc(Cl)c2)CC1` (racemic), for which the result with Mus musculus [7], with Mus musculus [2], in the series on Mus musculus [3] and in the series with Mus musculus [6] was inactive. For the same compound, the MTD50 in series [4] amounted to 300 mg/kg. In series [5], the Activity entry is reported as “Non-Toxic”.

Take `CC(c1ccccc1)C1CC(=O)N(CN2CCN(c3cccc(Cl)c3)CC2)C1=O` (racemic): the result in the series with Mus musculus [7], in the series on Mus musculus [2], with Mus musculus [3] and in the series with Mus musculus [6] was inactive. Further, in series [4], the MTD50 was found to be 300 mg/kg. In addition, the Activity entry in series [5] was “Non-Toxic”.

As for `CC(c1ccccc1)C1CC(=O)N(CN2CCN(c3ccccc3F)CC2)C1=O` (stereo unspecified), the result in the series with Mus musculus [7], with Mus musculus [2], with Mus musculus [3] and in the series with Mus musculus [6] was inactive. Further, the Activity entry in [8] and in [5] was “Non-Toxic” in each case.

Consider `CC(c1ccccc1)C1CC(=O)N(CN2CCN(c3ccccc3)CC2)C1=O` (stereo unspecified), for which the outcome in the series with Mus musculus [7], in the series on Mus musculus [2], with Mus musculus [3] and in the series with Mus musculus [6] was inactive. The Activity entry in series [8] and in series [5] was “Non-Toxic” throughout.

A word on the TD50: it is the 50% point of the dose-response relation for the toxic effect studied. As for `CC[C@@H](C(N)=O)N1CCCC1=O` [LEVETIRACETAM], in series [11], the TD50 was greater than 500 mg/kg.

For the compound `O=C1CC(Cc2ccccc2)C(=O)N1CN1CCN(C2CCCCC2)CC1` (stereo unspecified), the outcome in the series with Mus musculus [7], in the series on Mus musculus [2], in the series on Mus musculus [3] and in the series with Mus musculus [6] was inactive. In addition, the Activity entry in series [8] and in [5] was “Non-Toxic” each time.

As for `Cl.O=C1CC(Cc2ccccc2)C(=O)N1CN1CCN(Cc2ccccc2)CC1` (racemic), the “MED=>50” value in the series with Mus musculus [1] came to 100 mg/kg. Besides, the Activity entry in series [8] and in [5] was “Non-Toxic” in each case. The result in the series on Mus musculus [2], in the series with Mus musculus [3] and in the series with Mus musculus [6] was inactive.
